Where only a bound is given, the exact number is not on record here.

The values below come from patent US20100010053A1, “COMPOUNDS” (priority 2008, published 2010).

Data set [1] deals with T1, human S1P3 receptor (EDG3) (Homo sapiens, UniProt Q99500).
T1 construct: expressed in transfected cells; host or cells: rat basophilic leukaemia cells RBL-2H3 (membranes, GTPγS assay) or GeneBLAzer EDG3-Ga15-NFAT-bla HEK 293T cells
As to the kind of experiment: S1P3 GTPγS assay or S1P3 GeneBlazer assay (at least one of the above assays). Format: cell-based. Conditions: given as EC50. How it is done:
S1P3 membranes from rat basophilic leukaemia cells (RBL-2H3) (1.5 μg/well) were adhered to WGA-coated SPA beads (0.125 mg/well) in assay buffer (HEPES 20 mM, MgCl2 3 mM, NaCl 100 mM and pH adjusted to 7.4 using KOH 5M), GDP 10 μM FAC and saponin 90 μg/ml FAC was also added).
After 30 minutes pre-coupling on ice the bead and membrane suspension was dispensed into a white Greiner polypropylene LV384-well plate (5 μl/well), containing 0.1 μl of the compound. 5 μl/well [^35S]-GTPγS (0.5 nM final radioligand conc) made up in assay buffer was then added to agonist plates. The final assay cocktail (10.1 μl) was centrifuged at 1000 rpm for 5 minutes then read immediately on a Viewlux reader.
All test compounds were dissolved in DMSO at a concentration of 10 mM and were prepared in 100% DMSO using a 1 in 4 dilution step to provide 11 point dose response curves. The dilutions were transferred to the assay plates ensuring that the DMSO concentration was constant across the plate for all assays. […]
After incubation at 37° C., 5% CO2 for 5 h, 25 μl of 6× substrate mixture (6 μl Solution A (1 mg LiveBLAzer™-FRET B/G Substrate (CCF4-AM) in 912 μl DMSO) plus 60 μl Solution B plus 934 μl Solution C) was added to each well and incubate at room temperature for 2 h in dark. The plate was finally read on EnVision for two emission channels (460 nm and 530 nm). […]

In data set [2] the target is T2, human S1P1 receptor (EDG1) (Homo sapiens, UniProt P21453).
T2 construct: TEV protease site + Gal4-VP16 transcription factor (only in the Tango assay cells; not described for the GTPγS membranes); expressed in transfected cells; host or cells: rat hepatoma cells (membranes, GTPγS assay) or Tango EDG1-bla U2OS cells (Tango assay)
As to the kind of experiment: S1P1 GTPγS assay or S1P1 Tango assay (at least one of the above assays). Format: cell-based. Conditions: read-out: pEC50 in at least one of the above assays (converted). The procedure: For membrane preparations all steps were performed at 4° C. Rat hepatoma cells stably expressing the human S1P1 receptor or Rat Basophilic Leukaemia cells (RBL) stably expressing human S1P3 receptor were grown to 80% confluency before being harvested into 10 ml Phospho-Buffered Saline (PBS) and centrifuged at 1200 rpm for 5 minutes. After removal of the supernatant, the pellet was re-suspended and cells were homogenised within a glass Waring blender for 2 bursts of 15 secs in 200 mls of buffer (50 mM HEPES, 1 mM leupeptin, 25 μg/ml bacitracin, 1 mM EDTA, 1 mM PMSF, 2 μM pepstatin A). The blender was plunged into ice for 5 mins after the first burst and 10-40 mins after the final burst to allow foam to dissipate. The material was then spun at 500 g for 20 mins and the supernatant spun for 36 mins at 48,000 g. The pellet was resuspended in the same buffer as above but without PMSF and pepstatin A. The material was then forced through a 0.6 mm needle, made up to the required volume, (usually ×4 the volume of the original cell pellet), aliquoted and stored frozen at −80° C. S1P1 GTPγS assay Human S1P1 rat hepatoma membranes (1.5 μg/well) were adhered to a wheatgerm agglutinin (WGA)-coated scintillation proximity assay (SPA) beads (0.125 mg/well) in assay buffer (HEPES 20 mM, MgCl2 10 mM, NaCl 100 mM and pH adjusted to 7.4 using KOH 5M, GDP 10 μM FAC (final assay concentration) and saponin 90 μg/ml FAC was also added).
After 30 minutes pre-coupling on ice the bead and membrane suspension was dispensed into a white Greiner polypropylene LV384-well plate (5 μl/well), containing 0.1 μl of the compound. 5 μl/well [^35S]-GTPγS (0.5 nM final radioligand conc) made up in assay buffer was then added to agonist plates. The final assay cocktail (10.1 μl) was then centrifuged at 1000 rpm for 5 minutes then read immediately on a Viewlux reader.
All test compounds were dissolved in DMSO at a concentration of 10 mM and were prepared in 100% DMSO using a 1 in 4 dilution step to provide 11 point dose response curves. The dilutions were transferred to the assay plates ensuring that the DMSO concentration was constant across the plate for all assays.
All data was normalized to the mean of 16 high and 16 low control wells on each plate. A four parameter curve fit was then applied.
Recombinant EDG1-bla/U2OS cells (contain the human Endothelial Differentiation Gene 1 (EDG1) linked to a TEV protease site and a Gal4-VP16 transcription factor stably integrated into the Tango GPCR-bla U2OS parental cell line) were suspended in assay medium (Invitrogen Freestyle Expression Medium) at a density of 312, 500 cells/ml. Add 100 μl/well of the assay medium to the cell-free control wells (column 12) and 100 μl/well of the cell suspension to the test compound wells (row 2-8, column 1-10), the unstimulated control wells (DMSO) (column 11), and stimulated control wells (S1P) (row 1, column 1-10) in a Corning black-well, clear bottom 96-well plate. Cells were incubated at 37° C., 5% CO2 for 44-48 h. Add 25 μl of 5× stock solution of test compounds in assay medium with 0.5% DMSO to the test compound wells, 25 μl of 5× stock solution of agonist (S1P) in assay medium with 0.5% DMSO to the stimulated compound wells, and 25 μl of 5× stock solution of 0.5% DMSO in assay medium to the unstimulated control and cell-free control wells.
After incubation at 37° C., 5% CO2 for 5 h, 25 μl of 6× substrate mixture (6 μl Solution A (1 mg LiveBLAzer™-FRET B/G substrate (CCF4-AM) in 912 μl DMSO) plus 60 μl Solution B plus 934 μl Solution C) was added to each well and incubate at room temperature for 2 h in dark. The plate was finally read on EnVision for two emission channels (460 nm and 530 nm).
All test compounds were dissolved in DMSO at a concentration of 10 mM and were prepared in 100% DMSO using a 1 in 5 dilution step to provide 10 point dose response curves. […]

The test system of another data set is circulating lymphocytes. Conditions: animals and man; cited from earlier work.
For data set [3] the following is noted: clinical studies, first 24 hours of treatment; cited from earlier work.

T2 sequence (P21453 whole entry, the tested form may be a part): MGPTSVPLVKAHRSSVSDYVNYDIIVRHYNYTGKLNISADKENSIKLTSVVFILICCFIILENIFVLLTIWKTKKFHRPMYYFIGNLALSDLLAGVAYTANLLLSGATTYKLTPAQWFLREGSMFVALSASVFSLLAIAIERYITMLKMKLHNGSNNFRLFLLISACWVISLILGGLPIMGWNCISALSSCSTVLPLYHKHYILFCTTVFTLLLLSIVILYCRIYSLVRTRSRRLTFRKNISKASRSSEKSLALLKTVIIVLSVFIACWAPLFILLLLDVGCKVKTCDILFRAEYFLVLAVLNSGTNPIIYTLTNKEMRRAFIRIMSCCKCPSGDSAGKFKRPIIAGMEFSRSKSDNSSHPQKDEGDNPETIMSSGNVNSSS
T1 sequence (Q99500 whole entry): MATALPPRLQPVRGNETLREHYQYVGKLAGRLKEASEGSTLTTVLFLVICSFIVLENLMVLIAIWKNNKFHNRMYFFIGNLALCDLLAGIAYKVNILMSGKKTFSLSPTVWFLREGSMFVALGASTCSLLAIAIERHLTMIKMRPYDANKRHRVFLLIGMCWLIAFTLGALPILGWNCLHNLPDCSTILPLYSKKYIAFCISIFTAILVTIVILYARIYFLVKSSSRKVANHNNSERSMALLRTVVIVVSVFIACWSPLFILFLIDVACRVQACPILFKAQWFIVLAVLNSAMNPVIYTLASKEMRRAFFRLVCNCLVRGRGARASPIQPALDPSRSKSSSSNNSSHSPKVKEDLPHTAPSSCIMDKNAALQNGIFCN

`CC(C)Oc1ccc(-c2nc(-c3cccc4c([C@H]5C[C@H]5C(=O)O)cn(C)c34)no2)cc1Cl` (relative stereo) [Example 40, cis-2-[7-(5-{3-chloro-4-[(1-methylethyl)oxy]phenyl}-1,2,4-oxadiazol-3-yl)-1-methyl-1H-indol-3-yl]cyclopropanecarboxylic acid]: the EC50 in data set [1] is 316 nM.
For the compound `CC(C)Oc1ncc(-c2nc(-c3ccc4c(CN5CCC(C(=O)O)CC5)c[nH]c4c3)no2)cc1Cl` [Example 78, 1-{[6-(5-{5-chloro-6-[(1-methylethyl)oxy]-3-pyridinyl}-1,2,4-oxadiazol-3-yl)-1H-indol-3-yl]methyl}-4-piperidinecarboxylic acid], the EC50 in data set [2] is not below 1000 nM.
On the same count and under the same terms, the figure for `CC(C)Oc1ccc(-c2nc(-c3cccc4c(CCOCC(=O)O)cn(C)c34)no2)cc1Cl` [Example 79, ({2-[7-(5-{3-chloro-4-[(1-methylethyl)oxy]phenyl}-1,2,4-oxadiazol-3-yl)-1-methyl-1H-indol-3-yl]ethyl}oxy)acetic acid] is less than 10 nM; for `CC(C)Oc1ccc(-c2nc(-c3cccc4c(CCCOCC(=O)O)cn(C)c34)no2)cc1Cl` [Example 80, ({3-[7-(5-{3-chloro-4-[(1-methylethyl)oxy]phenyl}-1,2,4-oxadiazol-3-yl)-1-methyl-1H-indol-3-yl]propyl}oxy)acetic acid] it is less than 10 nM.
The same measure, in the same setting: the figure for `CC(C)Oc1ccc(-c2nc(-c3ccc4[nH]c(CCC(=O)O)cc4c3)no2)cc1C#N` [Example 89, 3-[5-(5-{3-cyano-4-[(1-methylethyl)oxy]phenyl}-1,2,4-oxadiazol-3-yl)-1H-indol-2-yl]propanoic acid] is less than 10 nM.
Still for that read-out and setting: the figure for `CC(C)Oc1ncc(-c2nc(-c3cc(F)cc4c(CCC(=O)O)c[nH]c34)no2)cc1Cl` [Example 101, 3-[7-(5-{5-Chloro-6-[(1-methylethyl)oxy]-3-pyridinyl}-1,2,4-oxadiazol-3-yl)-5-fluoro-1H-indol-3-yl]propanoic acid] is less than 10 nM; for `CC(C)Oc1ncc(-c2nc(-c3cc(F)cc4c(CCC(=O)O)cn(C)c34)no2)cc1Cl` [Example 102, 3-[7-(5-{5-Chloro-6-[(1-methylethyl)oxy]-3-pyridinyl}-1,2,4-oxadiazol-3-yl)-5-fluoro-1-methyl-1H-indol-3-yl]propanoic acid] it is less than 1 nM.
`CC(C)Oc1ccc(-c2nc(-c3c(F)ccc4c(CCC(=O)O)c[nH]c34)no2)cc1Cl` [Example 103, 3-[7-(5-{3-Chloro-4-[(1-methylethyl)oxy]phenyl}-1,2,4-oxadiazol-3-yl)-6-fluoro-1H-indol-3-yl]propanoic acid]: in data set [2], the EC50 was less than 1 nM.
The same measure, in the same setting: the figure for `CC(C)Oc1ccc(-c2nc(-c3c(F)ccc4c(CCC(=O)O)cn(C)c34)no2)cc1Cl` [Example 104, 3-[7-(5-{3-Chloro-4-[(1-methylethyl)oxy]phenyl}-1,2,4-oxadiazol-3-yl)-6-fluoro-1-methyl-1H-indol-3-yl]propanoic acid] is less than 10 nM.
In the case of `CC(C)Oc1ccc(-c2nc(-c3c(F)ccc4c(CCC(=O)O)c[nH]c34)no2)cc1C#N` [Example 105, 3-[7-(5-{3-Cyano-4-[(1-methylethyl)oxy]phenyl}-1,2,4-oxadiazol-3-yl)-6-fluoro-1H-indol-3-yl]propanoic acid], the EC50 in data set [2] was less than 1 nM.
The same measure, in the same setting: the same measure for `CC(C)Oc1ccc(-c2nc(-c3c(F)ccc4c(CCC(=O)O)cn(C)c34)no2)cc1C#N` [Example 106, 3-[7-(5-{3-Cyano-4-[(1-methylethyl)oxy]phenyl}-1,2,4-oxadiazol-3-yl)-6-fluoro-1-methyl-1H-indol-3-yl]propanoic acid]: less than 10 nM; for `CC(C)Oc1ccc(-c2nc(-c3cc4[nH]cc(CCC(=O)O)c4cc3F)no2)cc1Cl` [Example 109, 3-[6-(5-{3-Chloro-4-[(1-methylethyl)oxy]phenyl}-1,2,4-oxadiazol-3-yl)-5-fluoro-1H-indol-3-yl]propanoic acid]: less than 1 nM; for `CC(C)Oc1ccc(-c2nc(-c3cc4[nH]cc(CCC(=O)O)c4cc3F)no2)cc1C#N` [Example 110, 3-[6-(5-{3-Cyano-4-[(1-methylethyl)oxy]phenyl}-1,2,4-oxadiazol-3-yl)-5-fluoro-1H-indol-3-yl]propanoic acid]: less than 1 nM.
With `CC(C)Oc1ncc(-c2nc(-c3cc4[nH]cc(CCC(=O)O)c4cc3F)no2)cc1Cl` [Example 111, 3-[6-(5-{5-Chloro-6-[(1-methylethyl)oxy]-3-pyridinyl}-1,2,4-oxadiazol-3-yl)-5-fluoro-1H-indol-3-yl]propanoic acid], the EC50 in data set [2] was less than 10 nM.
`CCCCCCCCc1ccc(CCC(N)(CO)CO)cc1` [FTY720]: in the data set on circulating lymphocytes, the “effect on circulating lymphocytes” value is on record as “reduce circulating lymphocytes”. In data set [3], the bradycardia entry is listed as “results in bradycardia”.
